Read-outs that look alike come from different tables or passages of the source.
Target: T1, human CYP4Z1 (Homo sapiens, UniProt Q86W10)
T1 sequence (Q86W10 1-505): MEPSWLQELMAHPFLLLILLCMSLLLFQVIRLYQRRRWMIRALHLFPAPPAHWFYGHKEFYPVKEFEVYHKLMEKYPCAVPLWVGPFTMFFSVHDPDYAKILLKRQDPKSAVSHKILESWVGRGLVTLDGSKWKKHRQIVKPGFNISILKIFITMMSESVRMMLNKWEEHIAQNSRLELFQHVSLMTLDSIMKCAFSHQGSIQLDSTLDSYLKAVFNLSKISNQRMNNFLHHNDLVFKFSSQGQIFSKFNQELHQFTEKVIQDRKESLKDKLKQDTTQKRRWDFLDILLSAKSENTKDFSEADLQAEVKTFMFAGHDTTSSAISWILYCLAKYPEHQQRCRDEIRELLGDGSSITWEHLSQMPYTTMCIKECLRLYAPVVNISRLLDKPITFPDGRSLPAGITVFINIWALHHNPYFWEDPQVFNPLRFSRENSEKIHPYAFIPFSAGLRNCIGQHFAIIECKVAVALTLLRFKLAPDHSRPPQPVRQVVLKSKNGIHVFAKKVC
Test: whole-cell biotransformation (substrate conversion) assay with fission yeast strains expressing CYP4Z1
Details: for metabolite formation / metabolism by human CYP4Z1: fission yeast strains AZ1 and AZ3, 1 mM substrate, 24 h at 30°C, HPLC (steroids, vitamin D, ebastine) or GC-MS (fatty acids)
Experimental: Possible substrates of human CYP4Z1 were tested by incubating the fission yeast strains AZ1 and AZ3 as well as the control strains NCYC2036 and CAD 62 with 1 mM substrate. […] Approximately 2*10^8 cells/mL were used per assay. Cells were grown in EMM medium containing 100 g/L glucose as well as the required supplements (leucine for AZ1 and CAD 62). Incubation was carried out either in 96 well microtiter plates or in 250 mL Erlenmeyer flasks with a cellulose stopper at a shaking velocity of 150 rpm for 24 h at 30°C.
Samples containing steroids as possible substrates were extracted with ethylacetate, evaporated and analyzed via HPLC (Alliance, Waters, USA) using a RP-18 column (Licrosphere 100, 5µM, Merck, Darmstadt) or a RP-8 column (Licrosphere 100, 5µM, Merck, Darmstadt). The column temperature was kept constant at 40°C. The mobile phase used for each sample is outlined in Suppl. Table. 1. When available, positive control reactions were carried out using strains expressing a P450 that is known to metabolize the respective substrate.
Fatty acid conversions were analyzed via GC-MS as previously described. Fatty acid extraction from S.pombe cells was performed using the Bligh and Dyer method.. Extracted samples were then evaporated to dryness, dissolved in a mixture of 500 µl methanol/toluene/sulphuric acid (50:50:2 V/V) and incubated at 55 °C overnight. 400µl of a 0.5 M […], 2 M KCl solution were added to the samples which were then centrifuged at RT, transferred to a GC vial and derivatised with 25 µl N-Methyl-N-(trimethylsilyl)trifluoroacetamide (37 °C for 1 hour). Fatty acid analysis was performed on an Agilent 6890N gas chromatograph coupled to an Agilent 5973N mass selective detector and equipped with a non-polar J&W DB-5HT capillary column, as described before.

SMILES	main hydroxylation position (MS fragmentation analysis)	other hydroxylated fatty acids detected besides the main product	main hydroxylation position (MS fragmentation analysis) (CYP4Z1 whole-cell biotransformation, GC-MS, main product)	other hydroxylated fatty acids detected besides the main product (CYP4Z1 whole-cell biotransformation, GC-MS, minor products)	metabolite formation / metabolism by human CYP4Z1
CCCCCCCCCCCC(=O)O [lauric acid]	predominantly ω-4-hydroxylated	ω-2-, ω-3-, ω-5-hydroxylated			
CCCCCCCCCCCCCC(=O)O [myristic acid]			mainly hydroxylated at position ω-2	ω-3-, ω-4-, ω-5-hydroxlated	able to hydroxylate
C=C1CC[C@H](O)C/C1=C/C=C1\CCC[C@]2(C)[C@@H]([C@H](C)CCCC(C)C)CC[C@@H]12 [vitamin D3]					not metabolized

Source: patent EP2177604A1, “Methods for identifying potential CYP4 metabolites, inhibitors or prodrugs” (PomBio Tech GmbH, priority 2008, dated 2010)
